Data from patent publication US8778966B2, “Quinolinone derivatives as PARP and tank inhibitors” (Janssen Pharmaceutica, NV, priority 2007, dated 2014).

Target: T1, TANK-2 enzyme (Homo sapiens, UniProt Q9H2K2)
T1 construct: made in house
T1 sequence (Q9H2K2 1-1166): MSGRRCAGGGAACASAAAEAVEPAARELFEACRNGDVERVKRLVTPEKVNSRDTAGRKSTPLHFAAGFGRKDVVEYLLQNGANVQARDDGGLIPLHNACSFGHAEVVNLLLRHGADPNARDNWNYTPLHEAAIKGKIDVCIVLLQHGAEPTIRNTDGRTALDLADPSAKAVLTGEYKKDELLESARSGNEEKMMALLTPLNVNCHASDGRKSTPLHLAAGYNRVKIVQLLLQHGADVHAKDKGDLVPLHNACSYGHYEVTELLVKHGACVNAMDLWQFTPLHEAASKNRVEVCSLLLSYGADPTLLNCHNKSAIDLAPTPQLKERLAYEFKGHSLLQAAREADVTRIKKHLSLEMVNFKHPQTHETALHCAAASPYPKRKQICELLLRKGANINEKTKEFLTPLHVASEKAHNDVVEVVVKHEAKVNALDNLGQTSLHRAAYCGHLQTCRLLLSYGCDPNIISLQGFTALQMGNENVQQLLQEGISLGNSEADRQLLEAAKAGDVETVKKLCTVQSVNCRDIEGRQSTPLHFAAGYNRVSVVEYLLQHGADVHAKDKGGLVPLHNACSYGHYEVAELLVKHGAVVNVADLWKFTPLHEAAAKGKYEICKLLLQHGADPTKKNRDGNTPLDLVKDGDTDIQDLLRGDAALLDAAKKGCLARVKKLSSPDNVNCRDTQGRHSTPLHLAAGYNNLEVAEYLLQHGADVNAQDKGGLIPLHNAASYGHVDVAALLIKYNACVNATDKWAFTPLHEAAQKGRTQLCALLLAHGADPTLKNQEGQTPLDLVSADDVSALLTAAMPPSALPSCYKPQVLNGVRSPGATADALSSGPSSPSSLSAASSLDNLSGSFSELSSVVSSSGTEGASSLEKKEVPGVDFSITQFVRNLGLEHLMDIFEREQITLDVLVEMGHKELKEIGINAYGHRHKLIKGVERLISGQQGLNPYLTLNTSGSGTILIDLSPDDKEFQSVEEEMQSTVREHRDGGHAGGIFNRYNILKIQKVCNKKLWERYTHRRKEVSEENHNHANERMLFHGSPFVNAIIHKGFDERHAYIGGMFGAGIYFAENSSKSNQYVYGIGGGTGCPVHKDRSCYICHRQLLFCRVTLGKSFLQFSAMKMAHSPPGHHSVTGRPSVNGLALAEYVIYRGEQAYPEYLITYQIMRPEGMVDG
Assay: In vitro Scintillation Proximity Assay (SPA) for TANK-2 inhibitory activity
Format: biochemical
Settings: read-out: in vitro SPA assay TANK-2 pIC50 (converted)
Procedure, shortened: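 Results are pIC50 values, with IC50 interpolated linearly around 50% of blank-subtracted control cpm. They come from a scintillation proximity read of TANK-2 (8 μg/ml) self-modification with [3H]-NAD+/NAD, incubated 120 min at room temperature in pH 7.4 Tris buffer containing MgCl2 and DTT. Compounds were first screened at 10^−5 M.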

| Structure (SMILES) | IC50 |
| --- | --- |
| CCc1cc2ccc(C(C)(C#N)Cc3cc(C#N)nc(N(C)C)c3)cc2[nH]c1=O (centres unmarked) [Compound 325] | 63.1 nM |
| CCc1cc2ccc(C(C)(C#N)Cc3ccc4c(c3)OC(F)(F)O4)cc2[nH]c1=O (centres unmarked) [Compound 346] | 501 nM |
| CCc1cc2ccc(C(C)(C#N)Cc3cc(OC)nc(OC)c3)cc2[nH]c1=O (centres unmarked) [Compound 350] | 126 nM |
| CCc1cc2ccc(C(C)(C#N)Cc3cc(Cl)nc(OC)c3)cc2[nH]c1=O (centres unmarked) [Compound 351] | 158 nM |
| CCc1cc2ccc(C(C)(C#N)Cc3cc(N(C)C)nc(OC)n3)cc2[nH]c1=O (centres unmarked) [Compound 354] | 79.4 nM |
| CCc1cc2ccc(C(C)(C#N)Cc3nc(OC)cc(N(C)C)n3)cc2[nH]c1=O (centres unmarked) [Compound 355] | 158 nM |
| CCc1cc2ccc(C(C)(C#N)Cc3cc(Cl)nc(C)n3)cc2[nH]c1=O (centres unmarked) [Compound 365] | 79.4 nM |
| CCc1cc2ccc(C(C)(C#N)Cc3cc(Br)cc4c3OCC4)cc2[nH]c1=O (centres unmarked) [Compound 378] | 251 nM |
| Cc1cc2ccc(C(C)(C#N)Cc3cccc(/C=C/CCO)c3)cc2[nH]c1=O (centres unmarked) [Compound 409] | 1000 nM |

The next lines start with the values.

| IC50 | Structure (SMILES) |
| --- | --- |
| 100 nM | CCc1cc2ccc(C(C)(C#N)Cc3cccc(NC)n3)cc2[nH]c1=O (centres unmarked) [Compound 339] |
| 200 nM | CCc1cc2ccc(C(C)(C#N)Cc3c4ccccc4nn3C)cc2[nH]c1=O (centres unmarked) [Compound 347] |
| 398 nM | CCc1cc2ccc(C(C)(C#N)CN3CCC(c4ccccc4)CC3)cc2[nH]c1=O (centres unmarked) [Compound 375] |
| 50.1 nM | CCc1cc2ccc(C(C)(C#N)CN3CCN(c4ccc(C#N)cn4)CC3)cc2[nH]c1=O (centres unmarked) [Compound 377] |
| 100 nM | CCc1cc2ccc(C(C)(C#N)Cc3cccc4[nH]ccc34)cc2[nH]c1=O (centres unmarked) [Compound 379] |
| 2510 nM | Cc1cc2ccc([C@](C)(C#N)[C@H]3CCc4ccccc43)cc2[nH]c1=O [Compound 387] |
| 1260 nM | Cc1cc2ccc(C(C)(C#N)C3CCc4ccccc43)cc2[nH]c1=O (centres unmarked) [Compound 392] |
| 2000 nM | Cc1cc2ccc(C(C)(C#N)C3CCCc4ccccc43)cc2[nH]c1=O (centres unmarked) [Compound 404] |
